# Where two headings read alike, the source gives them in different places.
# Key:
# [1] = Determination of log P values by HPLC (reversed-phase C18); assay type: physicochemical; settings: for chromatographic logP: reversed-phase C18 HPLC column
# Experimental: 1) Description of Method for Determination of the Log P Values ([…]) The log P values given in the table were determined in accordance with EEC Directive 79/831 Annex V.A8 by HPLC (High Performance Liquid Chromatography) using a reversed-phase column (C 18). Temperature: 55° C. […] Gradient: from 10% eluent A/90% eluent B to 95% eluent A/5% eluent B in 4.25 min. Calibration was effected with unbranched alkan-2-ones (having 3 to 16 carbon atoms) with known log P values (log P values determined on the basis of the retention times by linear interpolation between two successive alkanones). The lambda max values were determined in the maxima of the chromatographic signals using the UV spectra from 200 nm to 400 nm.
# [2] = tested on: Meloidogyne incognita; test: Meloidogyne incognita test (MELGIN); assay type: in vivo; settings: 20 ppm; lettuce; after 14 days
# Experimental: Meloidogyne incognita Test (MELGIN) Solvent: 125.0 parts by weight of acetone To produce a suitable active ingredient formulation, 1 part by weight of active ingredient is mixed with the stated amount of solvent and the concentrate is diluted with water to the desired concentration. Vessels are filled with sand, active ingredient solution, an egg/larvae suspension of the southern root-knot nematode (Meloidogyne incognita) and lettuce seeds. The lettuce seeds germinate and the plants develop. The galls develop on the roots. After 14 days, the nematicidal efficacy in % is determined by the formation of galls. 100% means that no galls were found; 0% means that the number of galls on the treated plants corresponds to the untreated control.
# [3] = tested on: Boophilus microplus; test: Boophilus microplus injection test; assay type: in vivo; settings: 20 μg/animal injected into engorged adult female cattle ticks; assessed after 7 days by laying of fertile eggs
# Experimental: Boophilus microplus—Injection Test
# (§1) Solvent: dimethyl sulphoxide
# To produce an appropriate active ingredient formulation, 10 mg of active ingredient are mixed with 0.5 ml of solvent and the concentrate is diluted with solvent to the desired concentration.
# 1 μl of the active ingredient solution is injected into the abdomen of 5 engorged adult female cattle ticks (Boophilus microplus). The animals are transferred into dishes and kept in a climate-controlled room.
# Efficacy is assessed after 7 days by laying of fertile eggs. Eggs which are not visibly fertile are stored in a climate-controlled cabinet for about another 42 days until the larvae hatch. An efficacy of 100% means that none of the ticks has laid any fertile eggs; 0% means that all the eggs are fertile.
# [4] = tested on: Cooperia curticei; test: Cooperia curticei test; assay type: in vivo; settings: 20 ppm; nematode larvae; after 5 days
# Experimental: as §1
# To produce an appropriate active ingredient formulation, 10 mg of active ingredient are mixed with 0.5 ml of dimethyl sulphoxide and the concentrate is diluted with “Ringer's solution” to the desired concentration.
# Vessels containing the active ingredient formulation of the desired concentration are populated with about 40 nematode larvae (Cooperia curticei).
# After 5 days, the kill in % is determined 100% means that all the larvae have been killed; 0% means that none of the larvae have been killed.
# [5] = HPLC, reversed-phase C18, 55° C., final compounds table
# [6] = HPLC-MS, preparation examples, read-out: log P (neutral)
SMILES,"log P neutral [1, 5]",nematicidal efficacy (formation of galls) [2] [%],further results
O=C(Nc1ncn(-c2ccccc2Cl)n1)c1ccccc1Br [Compound I-1-4],1.97,90,
O=C(Nc1ncn(-c2ccccc2C(F)(F)F)n1)c1ccccc1C(F)(F)F [Compound I-1-8],2.24,100,
O=C(Nc1ncn(-c2ccccc2OC(F)(F)F)n1)c1ccccc1C(F)(F)F [Compound I-1-10],2.51,100,efficacy [3]: 100%
O=C(Nc1ncn(-c2c(F)cccc2F)n1)c1ccccc1Br [Compound I-1-12],1.80,90,
"O=C(Nc1ncn(-c2c(F)cccc2F)n1)c1ccccc1Cl [Compound I-1-13, 2-Chloro-N-[1-(2,6-difluorophenyl)-1H-1,2,4-triazol-3-yl]benzamide]",,100,"chromatographic logP [1, 6]: 1.73"
Cc1ccccc1C(=O)Nc1ncn(-c2c(F)cccc2F)n1 [Compound I-1-14],1.72,100,
CCc1ccccc1C(=O)Nc1ncn(-c2c(F)cccc2F)n1 [Compound I-1-15],,100,"chromatographic logP [1, 6]: 2.05"
O=C(Nc1ncn(-c2c(F)cccc2F)n1)c1cc(F)ccc1C(F)(F)F [Compound I-1-19],2.09,100,
O=C(Nc1ncn(-c2c(F)cccc2F)n1)c1c(F)cccc1C(F)(F)F [Compound I-1-20],2.04,100,efficacy (kill) [4]: 100%
O=C(Nc1ncn(-c2c(F)cccc2F)n1)c1ccccc1[N+](=O)[O-] [Compound I-1-22],1.54,90,
O=C(Nc1ncn(-c2c(F)cccc2C(F)(F)F)n1)c1ccccc1C(F)(F)F [Compound I-1-26],2.25,100,efficacy (kill) [4]: 90%
O=C(Nc1ncn(-c2c(F)cccc2C(F)(F)F)n1)c1ccccc1Cl [Compound I-1-27],2.06,90,
"O=C(Nc1ncn(-c2c(F)cccc2C(F)(F)F)n1)c1ccccc1I [Compound I-1-28, N-{1-[2-Fluoro-6-(trifluoromethyl)phenyl]-1H-1,2,4-triazol-3-yl}-2-iodobenzamide]",,100,"chromatographic logP [1, 6]: 2.21; efficacy (kill) [4]: 80%"
CCc1ccccc1C(=O)Nc1ncn(-c2c(F)cccc2C(F)(F)F)n1 [Compound I-1-29],2.39,100,
O=C(Nc1ncn(-c2c(F)cccc2Br)n1)c1ccccc1Cl [Compound I-1-31],1.95,100,
O=C(Nc1ncn(-c2c(F)cccc2Br)n1)c1ccccc1I [Compound I-1-32],2.08,100,
O=C(Nc1ncn(-c2c(F)cccc2Cl)n1)c1ccccc1I [Compound I-1-35],2.04,100,
Cc1cccc(Cl)c1-n1cnc(NC(=O)c2ccccc2C(F)(F)F)n1 [Compound I-1-40],2.26,90,
CCc1cccc(Cl)c1-n1cnc(NC(=O)c2ccccc2C(F)(F)F)n1 [Compound I-1-42],2.55,90,

SMILES,"log P neutral [1, 5]",nematicidal efficacy (formation of galls) [2] [%],further results
O=C(Nc1ncn(-c2c(Cl)cccc2Cl)n1)c1ccccc1Br [Compound I-1-45],2.09,100,
O=C(Nc1ncn(-c2c(Cl)cccc2Cl)n1)c1ccccc1Cl [Compound I-1-46],2.03,90,
O=C(Nc1ncn(-c2c(F)ccc(F)c2F)n1)c1ccccc1Cl [Compound I-1-58],1.91,100,
CCc1ccccc1C(=O)Nc1ncn(-c2c(F)ccc(F)c2F)n1 [Compound I-1-60],2.21,100,
O=C(Nc1ncn(-c2c(F)cc(F)cc2F)n1)c1ccccc1C(F)(F)F [Compound I-1-61],2.05,100,efficacy (kill) [4]: 80%
O=C(Nc1ncn(-c2c(F)cc(F)cc2F)n1)c1ccccc1Cl [Compound I-1-62],1.85,100,
O=C(Nc1ncn(-c2c(F)cc(F)cc2F)n1)c1ccccc1I [Compound I-1-63],2.00,100,efficacy (kill) [4]: 100%
CCc1ccccc1C(=O)Nc1ncn(-c2c(F)cc(F)cc2F)n1 [Compound I-1-64],2.14,100,
O=C(Nc1ncn(-c2c(F)c(F)c(F)c(F)c2F)n1)c1ccccc1C(F)(F)F [Compound I-1-65],2.49,,efficacy [3]: 100%
O=C(Nc1ncn(-c2c(F)c(F)c(F)c(F)c2F)n1)c1ccccc1I [Compound I-1-67],2.43,90,
O=C(Nc1ncn(-c2ccccc2Br)n1)c1ccccc1C(F)(F)F [Compound I-1-70],2.15,90,efficacy (kill) [4]: 80%
O=C(Nc1ncn(-c2ccccc2I)n1)c1ccccc1C(F)(F)F [Compound I-1-75],2.20,90,
O=C(Nc1ncn(-c2c(Br)cccc2Br)n1)c1ccccc1C(F)(F)F [Compound I-1-80],2.32,100,
O=C(Nc1ncn(-c2c(F)cccc2I)n1)c1ccccc1C(F)(F)F [Compound I-1-83],2.21,100,efficacy (kill) [4]: 80%
O=C(Nc1ncn(-c2c(F)cccc2I)n1)c1ccccc1I [Compound I-1-85],2.15,100,efficacy (kill) [4]: 80%
O=C(Nc1ncn(-c2c(Br)cc(F)cc2Br)n1)c1ccccc1C(F)(F)F [Compound I-1-87],2.46,90,
"O=C(Nc1ncn(-c2ncc(F)cc2F)n1)c1ccccc1C(F)(F)F [Compound I-1-89, N-[1-(3,5-Difluoropyridin-2-yl)-1H-1,2,4-triazol-3-yl]-2-(trifluoromethyl)benzamide]",,100,"chromatographic logP ([1]; pH 3.4, HPLC-MS, preparation examples, read-out: log P): 1.76; chromatographic logP ([1]; HPLC, reversed-phase C18, 55° C., final compounds table, read-out: log P neutral): 1.76"
O=C(Nc1ncn(-c2c(F)c(F)cc(F)c2F)n1)c1ccccc1Cl [Compound I-1-92],2.04,90,
O=C(Nc1ncn(-c2c(F)c(F)cc(F)c2F)n1)c1ccccc1C(F)(F)F [Compound I-1-93],2.23,100,
